Results on 37 compounds are retold here after US12528816B2, “Substituted imidazo [1,2-b] pyridazines and [1, 2, 4] triazolo [ 4,3-b] pyridazines as camkii inhibitors” (Cardurion Pharmaceuticals, INC., priority 2020, dated 2026).

Where only a bound is given, the exact number is not on record here.

The target of the first assay is T1, human CaMKIIδ (Homo sapiens, UniProt Q13557).
T1 construct: Full-length, glutathione-S-transferase(GST)-tagged, human CaMKIIδ was purchased from Carna Biosciences; purchased Carna Biosciences (CaMKIIδ); Wako Pure Chemical Industries (calmodulin) 02-111
The assay can be described thus: Evaluation of in vitro CaMKII inhibitory activity (binding assay, TR-FRET). The conditions noted are these: human CaMKIIδ, TR-FRET binding assay; class symbols A/B/C; read-out: Act (CaMKII inhibitory activity, binding assay). The procedure:
Evaluation of In Vitro CaMKII Inhibitory Activity (Binding Assay)
In vitro CaMKIIδ inhibitory activity was evaluated by a binding assay.
Full-length bovine calmodulin was purchased from Wako Pure Chemical Industries (Osaka, Japan). Terbium-labeled anti-GST anti body (Tb-anti-GST Ab) was purchased from Life Technologies (Carlsbad, CA, USA). Fluorescent probe ligand, 5,5-difluoro-7,9-dimethyl-3-(3-oxo-3-((3-((4-(3-(piperazin-1-yl)phenyl)pyrimidin-2-yl)amino)phenyl)amino) propyl)-5H-dipyrrolo[1,2-c:2′,1′-f]
Time-resolved fluorescence resonance energy transfer (TR-FRET) assay
The fluorescent probe ligand, 5,5-difluoro-7,9-dimethyl-3-(3-oxo-3-((3-((4-(3-(piperazin-1-yl)phenyl)pyrimidin-2-yl)amino)phenyl)amino) propyl)-5H-dipyrrolo[1,2-c:2′,1′-f] […] After shaded incubation of the protein-probe mixture on ice for 30 min, the premix was dispensed in the assay plate including test inhibitors with 4 fold dilution series of eight concentrations. After 1 hr incubation at room temperature, TR-FRET signals were measured in duplicate using an EnVision microplate reader (Perkin Elmer, Waltham, MA, USA).
The half maximal inhibitory concentration (IC50) of test compounds was calculated by fitting the data with the logistic equation using XLfit (IDBS, Guildford, UK).
`C[C@@H](Cn1cnnn1)Oc1cccc(-c2ccc3ncn(-c4cc(F)cc(O)c4C#N)c3n2)n1` [Example 472, 4-fluoro-2-hydroxy-6-[5-(6-{[(2S)-1-(1H-tetrazol-1-yl)propan-2-yl]oxy}pyridin-2-yl)-3H-imidazo[4,5-b]pyridin-3-yl]benzonitrile]: the IC50 was < 0.01 µM.
For `[2H]C([2H])([2H])Oc1ccnc(-c2cnc3ccc(-c4ccc(F)c(O[C@@H](C)Cn5cnnn5)c4)nn23)c1C#N` [Example 473, 2-[6-(4-fluoro-3-{[(2S)-1-(1H-tetrazol-1-yl)propan-2-yl]oxy}phenyl)imidazo[1,2-b]pyridazin-3-yl]-4-(methoxy-d3)pyridine-3-carbonitrile], the IC50 is < 0.01 µM.
With `[2H]C([2H])([2H])Oc1cc(F)cc(-n2cnc3ccc(-c4cccc(O[C@@H](C)Cn5cnnn5)n4)nc32)c1C#N` [Example 474, 4-fluoro-2-(methoxy-d3)-6-[5-(6-{[(2S)-1-(1H-tetrazol-1-yl)propan-2-yl]oxy}pyridin-2-yl)-3H-imidazo[4,5-b]pyridin-3-yl]benzonitrile], the IC50 was < 0.01 µM.
`COc1ccnc(-c2cnc3ccc(-c4ccc(F)c(O[C@@H](CF)Cn5cnnn5)c4)nn23)c1C#N` [Example 475, 2-[6-(4-fluoro-3-{[(2R)-1-fluoro-3-(1H-tetrazol-1-yl)propan-2-yl]oxy}phenyl)imidazo[1,2-b]pyridazin-3-yl]-4-methoxypyridine-3-carbonitrile]: the IC50 was < 0.01 µM.
On to `COc1ccnc(-c2cnc3ccc(-c4ccc(F)c(O[C@@H](CO)Cn5cnnn5)c4)nn23)c1C#N` [Example 477, 2-[6-(4-fluoro-3-{[(2R)-1-hydroxy-3-(1H-tetrazol-1-yl)propan-2-yl]oxy}phenyl)imidazo[1,2-b]pyridazin-3-yl]-4-methoxypyridine-3-carbonitrile], for which the IC50 is < 0.01 µM.
`COc1ccnc(-c2cnc3ccc(-c4ccc(F)c(N[C@@H](C)Cn5cnnn5)c4)nn23)c1C#N` [Example 478, 2-[6-(4-fluoro-3-{[(2S)-1-(1H-tetrazol-1-yl)propan-2-yl]amino}phenyl)imidazo[1,2-b]pyridazin-3-yl]-4-methoxypyridine-3-carbonitrile]: the IC50 was < 0.01 µM.
Regarding `COC(=O)c1cccc(-c2cnn3ccc(-c4ccc(C#N)c(O[C@@H](C)Cn5cnnn5)c4)nc23)c1` [compound 2, methyl 3-[5-(4-cyano-3-{[(2S)-1-(1H-tetrazol-1-yl)propan-2-yl]oxy}phenyl)pyrazolo[1,5-a]pyrimidin-3-yl]benzoate], the IC50 is > 0.1 µM.
On the same count and under the same terms, for `C[C@@H](Cn1cnnn1)Oc1cc(-c2ccn3ncc(-c4cccs4)c3n2)ccc1F` [compound 3] the value was < 0.01 µM; for `C[C@@H](Cn1cnnn1)Oc1cc(-c2ccn3ncc(-c4ccccn4)c3n2)ccc1F` [compound 4], < 0.01 µM.
As to `C[C@@H](Cn1cnnn1)Oc1cc(-c2ccn3ncc(-c4ccccc4)c3n2)ccc1F` [compound 5], the IC50 was < 0.01 µM.
With `COC(=O)c1cccc(-c2cnn3ccc(-c4ccc(F)c(O[C@@H](C)Cn5cnnn5)c4)nc23)c1` [compound 6], the IC50 is < 0.01 µM.
Regarding `C[C@@H](Cn1cnnn1)Oc1cc(-c2ccn3ncc(-c4cccc(C(=O)O)c4)c3n2)ccc1F` [compound 7], the IC50 was < 0.01 µM.
On to `CCNC(=O)c1cccc(-c2cnn3ccc(-c4ccc(F)c(O[C@@H](C)Cn5cnnn5)c4)nc23)c1` [compound 8], for which the IC50 was < 0.01 µM.
In the case of `COCCCNC(=O)c1cccc(-c2cnn3ccc(-c4ccc(F)c(O[C@@H](C)Cn5cnnn5)c4)nc23)c1` [compound 9], the IC50 is < 0.01 µM.
Consider `C[C@@H](Cn1cnnn1)Oc1cc(-c2ccn3ncc(-c4cccc(C(=O)N5CCC(N6CCOCC6)CC5)c4)c3n2)ccc1F` [compound 10], for which the IC50 is < 0.01 µM.
Regarding `CCN(CC)CCNC(=O)c1cccc(-n2cnc3ccc(-c4ccc(C#N)c(O[C@@H](C)Cn5cnnn5)c4)nc32)c1` [compound 11], the IC50 is > 0.1 µM.
As to `CCN(CC)CCNC(=O)c1cccc(-n2cnc3ccc(-c4ccc(F)c(O[C@@H](C)Cn5cnnn5)c4)nc32)c1` [compound 12], the IC50 was < 0.01 µM.
Consider `COC(=O)c1cccc(-n2cnc3ccc(-c4ccc(F)c(O[C@@H](C)Cn5cnnn5)c4)nc32)c1` [compound 13], for which the IC50 is < 0.01 µM.
Take `COC(=O)c1ccnc(-n2cnc3ccc(-c4ccc(F)c(O[C@@H](C)Cn5cnnn5)c4)nc32)c1` [compound 14]: the IC50 was < 0.01 µM.
Regarding `C[C@@H](Cn1cnnn1)Oc1cccc(-c2ccn3ncc(-c4ccc(N5CCOCC5)cc4)c3n2)c1` [compound 15], the IC50 is 0.01 to 0.1 µM.
As to `C[C@@H](Cn1cnnn1)Oc1cccc(-c2ccn3ncc(-c4cccc(C(=O)O)c4)c3n2)c1` [compound 16], the IC50 is < 0.01 µM.
As to `C[C@@H](Cn1cnnn1)Oc1cc(-c2ccc3ncc(-c4cccs4)n3c2)ccc1F` [compound 17], the IC50 was 0.01 to 0.1 µM.
As to `C[C@@H](Cn1cnnn1)Oc1cc(-c2ccn3ncc(-c4ccco4)c3n2)ccc1F` [compound 18], the IC50 is < 0.01 µM.
Turning to `C[C@@H](Cn1cnnn1)Oc1cc(-c2ccn3ncc(-c4ccoc4)c3n2)ccc1F` [compound 19], the IC50 was < 0.01 µM.
In the case of `C[C@@H](Cn1cnnn1)Oc1cc(-c2ccn3ncc(-c4cccnc4)c3n2)ccc1F` [compound 20], the IC50 was < 0.01 µM.
For the compound `C[C@@H](Cn1cnnn1)Oc1cc(-c2ccn3ncc(-c4ccncc4)c3n2)ccc1F` [compound 21], the IC50 is < 0.01 µM.

Still in this assay, the particulars now being: in vitro CaMKII inhibitory activity (binding assay), human CaMKIIδ; read-out: Act.
`C[C@@H](Cn1cnnn1)Oc1cccc(-c2ccc3ncc(-c4cccc(C(F)F)c4C#N)n3n2)c1` [Example 413, 2-(difluoromethyl)-6-[6-(3-{[(2S)-1-(1H-tetrazol-1-yl)propan-2-yl]oxy}phenyl)imidazo[1,2-b]pyridazin-3-yl]benzonitrile]: the IC50 was < 0.01 µM.
Consider `C[C@@H](Cn1cnnn1)Oc1cccc(-c2ccn3ncc(-c4cc(F)ccc4C#N)c3n2)n1` [Example 416, 4-fluoro-2-[5-(6-{[(2S)-1-(1H-tetrazol-1-yl)propan-2-yl]oxy}pyridin-2-yl)pyrazolo[1,5-a]pyrimidin-3-yl]benzonitrile], for which the IC50 was < 0.01 µM.
Consider `C[C@@H](Cn1cnnn1)Oc1cccc(-c2ccc3ncc(-c4cc(F)cc(C(F)F)c4C#N)n3n2)n1` [Example 417, 2-(difluoromethyl)-4-fluoro-6-[6-(6-{[(2S)-1-(1H-tetrazol-1-yl)propan-2-yl]oxy}pyridin-2-yl)imidazo[1,2-b]pyridazin-3-yl]benzonitrile], for which the IC50 was < 0.01 µM.
In the case of `CC(=O)c1cccc(-c2cnc3ccc(-c4cccc(O[C@@H](C)Cn5cnnn5)c4)nn23)c1C#N` [Example 426, 2-acetyl-6-[6-(3-{[(2S)-1-(1H-tetrazol-1-yl)propan-2-yl]oxy}phenyl)imidazo[1,2-b]pyridazin-3-yl]benzonitrile], the IC50 is < 0.01 µM.
Same read-out and setting: the value for `C[C@@H](Cn1cnnn1)Oc1cccc(-c2ccc3ncc(-c4cccc(C(C)(F)F)c4C#N)n3n2)c1` [Example 427, 2-(1,1-difluoroethyl)-6-[6-(3-{[(2S)-1-(1H-tetrazol-1-yl)propan-2-yl]oxy}phenyl)imidazo[1,2-b]pyridazin-3-yl]benzonitrile] was < 0.01 µM; that for `C[C@@H](Cn1cnnn1)Oc1cc(-c2ccc3ncc(-c4nccc(OCF)c4C#N)n3n2)ccc1F` [Example 435, 2-[6-(4-fluoro-3-{[(2S)-1-(1H-tetrazol-1-yl)propan-2-yl]oxy}phenyl)imidazo[1,2-b]pyridazin-3-yl]-4-(fluoromethoxy)pyridine-3-carbonitrile] was < 0.01 µM.
Turning to `COc1cc(F)cc(-c2cnc3ccc(-c4ccc(F)c(O[C@@H](C)Cn5cnnn5)n4)nn23)c1C#N` [Example 447, 4-fluoro-2-[6-(5-fluoro-6-{[(2S)-1-(1H-tetrazol-1-yl)propan-2-yl]oxy}pyridin-2-yl)imidazo[1,2-b]pyridazin-3-yl]-6-methoxybenzonitrile], the IC50 is < 0.01 µM.
Consider `COc1cc(Cl)cc(-n2cnc3ccc(-c4cncc(O[C@@H](C)Cn5cnnn5)n4)nc32)c1C#N` [Example 448, 4-chloro-2-methoxy-6-[5-(6-{[(2S)-1-(1H-tetrazol-1-yl)propan-2-yl]oxy}pyrazin-2-yl)-3H-imidazo[4,5-b]pyridin-3-yl]benzonitrile], for which the IC50 was < 0.01 µM.
Regarding `COc1cc(F)cc(-c2cnc3ccc(-c4cccc(O[C@@H](C)Cn5cncn5)n4)nn23)c1C#N` [Example 452, 4-fluoro-2-methoxy-6-[6-(6-{[(2S)-1-(1H-1,2,4-triazol-1-yl)propan-2-yl]oxy}pyridin-2-yl)imidazo[1,2-b]pyridazin-3-yl]benzonitrile], the IC50 is < 0.01 µM.
Still for that read-out and setting: the value for `C[C@@H](Cn1cnnn1)Oc1cccc(-c2ccc3ncc(-c4nccc(OCF)c4C#N)n3n2)c1` [Example 466, 4-(fluoromethoxy)-2-[6-(3-{[(2S)-1-(1H-tetrazol-1-yl)propan-2-yl]oxy}phenyl)imidazo[1,2-b]pyridazin-3-yl]pyridine-3-carbonitrile] was < 0.01 µM; that for `C[C@@H](Cn1cnnn1)Oc1cccc(-c2ccc3ncc(-c4nc(F)ccc4C#N)n3n2)c1` [Example 467, 6-fluoro-2-[6-(3-{[(2S)-1-(1H-tetrazol-1-yl)propan-2-yl]oxy}phenyl)imidazo[1,2-b]pyridazin-3-yl]pyridine-3-carbonitrile] was < 0.01 µM.
